The values that follow are results of earlier work, collected in patent publication US20080113031A1, “Minicapsule Formulations” (priority 2004, published 2008).

Assay in data set [1]: not given
The source holds these as a separate data set.

Consider `COCCOC(=O)C1=C(C)NC(C)=C(C(=O)OC(C)C)C1c1cccc([N+](=O)[O-])c1` (centres unmarked) [Nimodipine], for which the solubility in water entry was “practically insoluble”.

B1: PAL from Rhodosporidium toruloides: phenylalanine ammonia-lyase from Rhodosporidium toruloides (protein, UniProt P11544 1-716, looked up)
Phenylalanine/tyrosine …: MAPSLDSISHSFANGVASAKQAVNGASTNLAVAGSHLPTTQVTQVDIVEKMLAAPTDSTLELDGYSLNLGDVVSAARKGRPVRVKDSDEIRSKIDKSVEFLRSQLSMSVYGVTTGFGGSADTRTEDAISLQKALLEHQLCGVLPSSFDSFRLGRGLENSLPLEVVRGAMTIRVNSLTRGHSAVRLVVLEALTNFLNHGITPIVPLRGTISASGDLSPLSYIAAAISGHPDSKVHVVHEGKEKILYAREAMALFNLEPVVLGPKEGLGLVNGTAVSASMATLALHDAHMLSLLSQSLTAMTVEAMVGHAGSFHPFLHDVTRPHPTQIEVAGNIRKLLEGSRFAVHHEEEVKVKDDEGILRQDRYPLRTSPQWLGPLVSDLIHAHAVLTIEAGQSTTDNPLIDVENKTSHHGGNFQAAAVANTMEKTRLGLAQIGKLNFTQLTEMLNAGMNRGLPSCLAAEDPSLSYHCKGLDIAAAAYTSELGHLANPVTTHVQPAEMANQAVNSLALISARRTTESNDVLSLLLATHLYCVLQAIDLRAIEFEFKKQFGPAIVSLIDQHFGSAMTGSNLRDELVEKVNKTLAKRLEQTNSYDLVPRWHDAFSFAAGTVVEVLSSTSLSLAAVNAWKVAAAESAISLTRQVRETFWSAASTSSPALSYLSPRTQILYAFVREELGVKARRGDVFLGKQEVTIGSNVSKIYEAIKSGRINNVLLKMLA
With B1, in data set [1], the “activity at pH 2.2” value is given as “no activity”.
